Data: ChEMBL document CHEMBL1165960, “Identification of the three-dimensional pharmacophore of kappa-opioid receptor agonists” (Bioorg Med Chem, 2010)

Biological target: Kappa-type opioid receptor (Homo sapiens, UniProt P41145)
Sequence (P41145 whole entry): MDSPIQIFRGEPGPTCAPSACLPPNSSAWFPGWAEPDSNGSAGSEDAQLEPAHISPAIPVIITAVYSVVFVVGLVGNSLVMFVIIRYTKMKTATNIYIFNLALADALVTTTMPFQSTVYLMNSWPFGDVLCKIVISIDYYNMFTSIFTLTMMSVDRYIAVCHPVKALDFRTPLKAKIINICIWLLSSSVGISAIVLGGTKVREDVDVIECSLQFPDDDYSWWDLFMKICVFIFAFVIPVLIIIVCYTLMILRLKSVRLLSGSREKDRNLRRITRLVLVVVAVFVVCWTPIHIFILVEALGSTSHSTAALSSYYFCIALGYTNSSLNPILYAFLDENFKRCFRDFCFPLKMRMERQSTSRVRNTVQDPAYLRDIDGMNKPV
Experiment: Binding affinity to kappa opioid receptor
For `O=C(NC[C@H]1C[C@]23CCN(CC4CC4)[C@H](Cc4ccc(O)cc42)[C@]3(O)CO1)c1ccccc1`, the Ki was 135 pM.
`CN1c2ccccc2C(c2ccccc2F)=NCC1CNC(=O)c1ccsc1` (stereo unspecified) [TIFLUADOM] gave a Ki of 170 pM.
`O=C(Nc1ccccc1)[C@@H]1O[C@@]23CC[C@@]1(O)[C@@H]1Oc4c(O)ccc5c4[C@@]12CCN(CC1CC1)[C@@H]3C5` gave a Ki of 152 pM.
For `CCC12CCN(CC3(O)CC3)C(Cc3ccc(O)cc31)C2(C)C` (stereo unspecified) [BREMAZOCINE], the Ki was 40 pM.
For `COC(=O)[C@]12CN(C)C[C@](C(=O)OC)(C1=O)[C@@H](c1ccccn1)N(C)[C@H]2c1ccccn1`, the Ki was 15000 pM.
In the case of `O=C(Nc1ccccc1)[C@H]1O[C@@]23CCC1(O)[C@@H]1Oc4c(O)ccc5c4[C@@]12CCN(CC1CC1)[C@@H]3C5` (single isomer, unassigned), the Ki is reported as 111 pM.
With `NC(=O)[C@H]1CSSC[C@@H](NC(=O)[C@@H](N)Cc2ccc(O)cc2)C(=O)N[C@@H](Cc2ccccc2)C(=O)N1` the Ki was 38700 pM.
Compound `COc1ccc([C@H]2CN3C(=NC[C@@H]3C)N2CCCc2ccccc2)cc1` has a Ki of 39000 pM.

Tested on: not listed separately
Experiment: Selectivity ratio of Ki for mu opioid receptor to kappa opioid receptor
`O=C(NC[C@H]1C[C@]23CCN(CC4CC4)[C@H](Cc4ccc(O)cc42)[C@]3(O)CO1)c1ccccc1` showed a Ratio Ki of 1.
`CN1c2ccccc2C(c2ccccc2F)=NCC1CNC(=O)c1ccsc1` (stereo unspecified) [TIFLUADOM] showed a Ratio Ki of 8.8.
`O=C(Nc1ccccc1)[C@@H]1O[C@@]23CC[C@@]1(O)[C@@H]1Oc4c(O)ccc5c4[C@@]12CCN(CC1CC1)[C@@H]3C5` gave a Ratio Ki of 1.3.
`CCC12CCN(CC3(O)CC3)C(Cc3ccc(O)cc31)C2(C)C` (stereo unspecified) [BREMAZOCINE] gave a Ratio Ki of 3.8.
In the case of `COC(=O)[C@]12CN(C)C[C@](C(=O)OC)(C1=O)[C@@H](c1ccccn1)N(C)[C@H]2c1ccccn1`, the Ratio Ki is reported as > 66.7.
With `O=C(Nc1ccccc1)[C@H]1O[C@@]23CCC1(O)[C@@H]1Oc4c(O)ccc5c4[C@@]12CCN(CC1CC1)[C@@H]3C5` (single isomer, unassigned) the Ratio Ki was 1.9.
Work on `NC(=O)[C@H]1CSSC[C@@H](NC(=O)[C@@H](N)Cc2ccc(O)cc2)C(=O)N[C@@H](Cc2ccccc2)C(=O)N1` yielded a Ratio Ki of 0.03.
Compound `CN(C(=O)/C=C/c1ccco1)[C@@H]1CC[C@@]2(O)[C@H]3Cc4ccc(O)c5c4[C@@]2(CCN3CC2CC2)[C@H]1O5` has a Ratio Ki of 2.6.
